Data reported in ChEMBL document CHEMBL1240331, “Chemical genetic interrogation of natural variation uncovers a molecule that is glycoactivated” (Nat Chem Biol, 2007).
Calls of active or inactive are those of the source. The calls are words filed in the database; no cut-off is given here.

Experiments:
Format in all cases: functional, organism-based
Arabidopsis thaliana [1] = assay: Growth inhibition of Arabidopsis thaliana ecotype RRS7 assessed as decrease in root length
Arabidopsis thaliana [2] = assay: Growth inhibition of Arabidopsis thaliana ecotype Columbia assessed as decrease in root length
Arabidopsis thaliana [3] = assay: Growth inhibition of Arabidopsis thaliana ecotype LIN assessed as inhibition of germination
Arabidopsis thaliana [4] = assay: Growth inhibition of Arabidopsis thaliana ecotype Pog-0 assessed as inhibition of germination
Arabidopsis thaliana [5] = assay: Growth inhibition of Arabidopsis thaliana ecotype Br-0 assessed as inhibition of germination
Arabidopsis thaliana [6] = assay: Growth inhibition of Arabidopsis thaliana ecotype Columbia assessed as inhibition of germination at 100 uM
Arabidopsis thaliana [7] = assay: Growth inhibition of Arabidopsis thaliana ecotype Co assessed as inhibition of germination
Arabidopsis thaliana [8] = assay: Growth inhibition of Arabidopsis thaliana ecotype Rld-2 assessed as decrease in hypocotyl length
Arabidopsis thaliana [9] = assay: Growth inhibition of Arabidopsis thaliana ecotype KZ1 assessed as inhibition of germination
Arabidopsis thaliana [10] = assay: Growth inhibition of Arabidopsis thaliana ecotype Columbia assessed as inhibition of germination
Arabidopsis thaliana [11] = assay: Growth inhibition of Arabidopsis thaliana ecotype CSH-1 assessed as inhibition of germination
Arabidopsis thaliana [12] = assay: Growth inhibition of Arabidopsis thaliana ecotype Kyoto assessed as inhibition of germination
Arabidopsis thaliana [13] = assay: Growth inhibition of Arabidopsis thaliana ecotype Ra-0 assessed as inhibition of germination
Arabidopsis thaliana [14] = assay: Growth inhibition of Arabidopsis thaliana ecotype Ull2-3 assessed as inhibition of germination

In the case of `Cc1ccc(C(C)C)c(OCC(=O)N/N=C/c2cccnc2)c1` [CHUBOXYPYR], the IC50 (Arabidopsis thaliana [1]) is reported as 22 µM and the IC50 (Arabidopsis thaliana [2]) is reported as 80 µM.
For `O=C(c1ccccc1Cl)c1coc2ccccc2c1=O`, the IC50 (Arabidopsis thaliana [3]) was at most 14 µM.
`COc1ccc2occ(C(=O)c3ccccc3Cl)c(=O)c2c1` was tested, and the IC50 (Arabidopsis thaliana [4]) was 3 µM.
With `O=[N+]([O-])c1ccc(CN2CCCCC2c2cccnc2)cc1` (stereo not drawn) the IC50 (Arabidopsis thaliana [5]) was 3 µM and the “growth inhibition (GI)” value (Arabidopsis thaliana [6]) was “inactive”.
`CCc1ccc(CN2CCCCC2c2cccnc2)cc1` (stereo not drawn) was tested, and the IC50 (Arabidopsis thaliana [7]) was 10 µM and the “growth inhibition (GI)” value (Arabidopsis thaliana [6]) was “inactive”.
`CCOC(=O)N1CCN(c2cc(C)c3ccc(Cl)cc3n2)CC1` [POLARAZINE] showed an IC50 (Arabidopsis thaliana [8]) of 13 µM.
Work on `O=S(=O)(NCc1ccccn1)c1ccc(Br)c2ccccc12` [PYRABACTIN A] yielded an IC50 (Arabidopsis thaliana [9]) of 2.2 µM.
`CCOc1ccc(S(=O)(=O)NCc2ccccn2)c2ccccc12` [PYRABACTIN B] showed an IC50 (Arabidopsis thaliana [10]) of 8.4 µM and an IC50 (Arabidopsis thaliana [11]) of 2.5 µM.
For `CCN(CC)c1ccc(C(=O)c2ccccc2C(=O)O)c(O)c1`, the IC50 (Arabidopsis thaliana [12]) was 12.5 µM and the “growth inhibition (GI)” value (Arabidopsis thaliana [6]) was “inactive”.
For `CC1CCC(C(C)C)C(=O)/C1=C\c1ccc(N)cc1` (stereo not drawn), the IC50 (Arabidopsis thaliana [13]) was 7 µM and the “growth inhibition (GI)” value (Arabidopsis thaliana [6]) was “inactive”.
For `OC(c1ccccc1)(c1ccccc1)c1c[nH]cn1`, the IC50 (Arabidopsis thaliana [14]) was 17 µM and the “growth inhibition (GI)” value (Arabidopsis thaliana [6]) was “inactive”.
